Reference: patent US11524966B1 (Valo Early Discovery, Inc., priority 2017, dated 2022)

Molecular target: T1, USP28 (His-tagged USP28-FL-mammalian) (Homo sapiens, UniProt Q96RU2)
T1 construct: Expression of USP28 (1-1077)-TEV-6*His (pTT5 vector); made in house; host or cells: Expi293f cells (pTT5 vector)
T1 sequence (Q96RU2 1-1077): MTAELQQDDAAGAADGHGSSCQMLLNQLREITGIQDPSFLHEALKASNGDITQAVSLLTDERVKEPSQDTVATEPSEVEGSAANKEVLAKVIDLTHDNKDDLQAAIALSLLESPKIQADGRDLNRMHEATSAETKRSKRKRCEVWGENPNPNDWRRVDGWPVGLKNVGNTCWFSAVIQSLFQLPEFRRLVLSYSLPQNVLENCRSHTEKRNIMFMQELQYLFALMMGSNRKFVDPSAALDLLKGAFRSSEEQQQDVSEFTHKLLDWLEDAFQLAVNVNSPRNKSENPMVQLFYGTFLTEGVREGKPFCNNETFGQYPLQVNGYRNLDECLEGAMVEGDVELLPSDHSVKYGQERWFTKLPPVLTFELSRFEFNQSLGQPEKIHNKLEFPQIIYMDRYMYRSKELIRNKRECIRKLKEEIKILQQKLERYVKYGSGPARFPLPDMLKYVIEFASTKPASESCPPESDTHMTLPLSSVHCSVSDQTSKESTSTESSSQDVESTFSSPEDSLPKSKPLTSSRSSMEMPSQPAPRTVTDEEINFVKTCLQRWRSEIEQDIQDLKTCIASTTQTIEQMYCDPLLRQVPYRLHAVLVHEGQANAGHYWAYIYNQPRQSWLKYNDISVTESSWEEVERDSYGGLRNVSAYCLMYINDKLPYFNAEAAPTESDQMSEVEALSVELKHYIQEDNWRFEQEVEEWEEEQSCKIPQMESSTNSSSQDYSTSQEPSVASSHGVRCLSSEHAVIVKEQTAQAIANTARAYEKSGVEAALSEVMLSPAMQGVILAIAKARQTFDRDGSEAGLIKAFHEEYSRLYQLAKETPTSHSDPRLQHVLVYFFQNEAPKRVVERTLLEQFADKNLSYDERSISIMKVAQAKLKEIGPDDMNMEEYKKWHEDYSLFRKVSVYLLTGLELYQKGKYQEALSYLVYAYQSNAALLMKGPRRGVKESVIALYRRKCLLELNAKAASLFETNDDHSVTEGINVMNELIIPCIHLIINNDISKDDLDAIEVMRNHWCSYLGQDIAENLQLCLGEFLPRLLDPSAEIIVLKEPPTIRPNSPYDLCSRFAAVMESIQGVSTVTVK
Test: Ubiquitin-Rhodamine 110 Assay for USP28 Activity, Example A-1(a)
Format: biochemical
Conditions: Ubiquitin-Rhodamine 110 assay, format Example A-1(a); read-out: USP28 A-1(a) IC50 range
Procedure, shortened: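 IC50 from 4-parameter logistic fit of percent inhibition versus no-enzyme and DMSO controls; compounds 25 μM to 1.3 nM, 3-fold. Ub-Rh110 cleavage (25 nM, below Km) by […] mammalian-expressed USP28-FL-His ran 45 min at room temperature, stopped with 10 mM citric acid, read ex 485/em 535.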

## Cc1cnc2c(N)c(C(=O)N[C@H]3CCc4c(ccc(N5CC6CCC(C5)N6)c4C#N)C3)sc2n1 (single isomer, unassigned) [Example 14-6]
  IC50: 0.2 to 2 µM

## Cc1ccc2c(N)c(C(=O)N[C@H]3CCc4cc(N5CC6CCC(C5)N6)c(C#N)cc4C3)sc2n1 (single isomer, unassigned) [Example 14-4]
  IC50: 0.001 to 0.05 µM

## Cc1ccc2c(N)c(C(=O)N[C@@H]3CCc4c(ccc(N5CC6CCC(C5)N6)c4C#N)C3)sc2n1 (single isomer, unassigned) [Example 14-1]
  IC50: 0.001 to 0.05 µM

## Cc1cnc2c(N)c(C(=O)N[C@H]3CCc4cc(N5CC6CCC(C5)N6)c(C#N)cc4C3)sc2n1 (single isomer, unassigned) [Example 14-8]
  IC50: 0.001 to 0.05 µM

## Cc1ccc2c(N)c(C(=O)N[C@@H]3CCc4cc(N5CC6CCC(C5)N6)c(C#N)cc4C3)sc2n1 (single isomer, unassigned) [Example 14-3]
  IC50: 0.2 to 2 µM

## Cc1cnc2c(N)c(C(=O)N[C@@H]3CCc4cc(N5CC6CCC(C5)N6)c(C#N)cc4C3)sc2n1 (single isomer, unassigned) [Example 14-7]
  IC50: 0.2 to 2 µM

## Cc1ccc2c(N)c(C(=O)N[C@H]3CCc4c(ccc(N5CC6CCC(C5)N6)c4C#N)C3)sc2n1 (single isomer, unassigned) [Example 14-2]
  IC50: 0.05 to 0.2 µM

## Cc1cnc2c(N)c(C(=O)N[C@@H]3CCc4c(ccc(N5CC6CCC(C5)N6)c4C#N)C3)sc2n1 (single isomer, unassigned) [Example 14-5]
  IC50: 0.001 to 0.05 µM
